This assay concerns the target bovine cardiac myosin (Bos taurus (Bovine), UniProt Q9BE39). Kind of assay: Myosin inhibitory potency: PK/LDH-coupled ATPase assay on bovine skinned cardiac myofibrils. Type of assay: biochemical. As to conditions: pCa=6.25, 50 μM ATP, 25° C., read-out: myosin inhibition activity IC50. As to the method: The average rates of ATPase inhibition, and the IC50 values are determined by Victor Nivo multimode plate reader (PerkinElmer, USA).
As to the assays background, a biochemical assay couples the ATPase activity of bovine cardiac myosin to an enzymatic coupling system consisting of pyruvate kinase and lactate dehydrogenase (PK/LDH) and monitoring the absorbance decrease of NADH (at 340 nm) as a function of time to measure the inhibitory ability of small molecule agents. In the assay, PK converts ADP (Adenosine diphosphate) to ATP (adenosine triphosphate) by converting PEP (phosphoenolpyruvate) to pyruvate. Pyruvate is then converted to lactate by LDH by converting NADH (nicotinamide adenine dinucleotide) to NAD (oxidized nicotinamide adenine dinucleotide).
In our experiments, bovine skinned cardiac myofibrils were isolated from the frozen bovine left ventricle as myosin's source in the ATPase assay. The calcium concentration that achieves a 50% (pCa50 or pCa=6.25) activation of the myofibril system was chosen as the final condition for assessing the activation activity according to the literature (DOI: 10.1074/jbc.M117.776815). Myofibrils ATPase activity was measured in a buffered solution containing 12 mM PIPES (piperazine-N, N′-bis(2-ethane sulfonic acid) and 2 mM magnesium chloride at pH 6.8 (PM12 buffer). Final assay conditions were 1 mg/mL of bovine cardiac myofibrils, 1:20 of stock PK/LDH (Sigma-Aldrich, Cat No. P0294-5X5ML), 50 μM ATP, 1 mM DTT (dithiothreitol), 0.75 mM NADH, 1.5 mM PEP at pCa50 (pCa=6.25). Compounds were dissolved in DMSO (dimethyl sulfoxide). Serial dilution of compounds was created such that the final desired concentration of compound would be achieved in a volume of 150 μL with a fixed DMSO concentration of 2% (v/v). 75 μL of a solution containing bovine cardiac myofibrils, PK/LDH, and calcium were added to a 96 well plate for a 7 point dose-response. In some circumstances, 10 point-response was used to repeat the ATPase assays on compounds of interest. Compounds were added to the myofibrils solution and incubated for 5 minutes. The enzymatic reaction was started with the addition of 75 μL of a solution containing ATP, PEP, NADH, compounds, and calcium. The ATPase activity was measured by reading absorbance at 340 nm in a PerkinElmer Victor Nivo plate reader at 25° C. in kinetic mode for 15 minutes using clear bottom plates. The slopes of the absorbance changes as a function of time for the first 10 minutes were normalized to slopes on the control wells containing all reagents, including DMSO, but without compounds. This normalized rate was then plotted as a function of small molecule concentration in GraphPad prism 9. The data were fitted to a four-parameter fit, and IC50 was calculated using Graphpad Prism 9.
Chain of bovine cardiac myosin (Q9BE39 whole entry): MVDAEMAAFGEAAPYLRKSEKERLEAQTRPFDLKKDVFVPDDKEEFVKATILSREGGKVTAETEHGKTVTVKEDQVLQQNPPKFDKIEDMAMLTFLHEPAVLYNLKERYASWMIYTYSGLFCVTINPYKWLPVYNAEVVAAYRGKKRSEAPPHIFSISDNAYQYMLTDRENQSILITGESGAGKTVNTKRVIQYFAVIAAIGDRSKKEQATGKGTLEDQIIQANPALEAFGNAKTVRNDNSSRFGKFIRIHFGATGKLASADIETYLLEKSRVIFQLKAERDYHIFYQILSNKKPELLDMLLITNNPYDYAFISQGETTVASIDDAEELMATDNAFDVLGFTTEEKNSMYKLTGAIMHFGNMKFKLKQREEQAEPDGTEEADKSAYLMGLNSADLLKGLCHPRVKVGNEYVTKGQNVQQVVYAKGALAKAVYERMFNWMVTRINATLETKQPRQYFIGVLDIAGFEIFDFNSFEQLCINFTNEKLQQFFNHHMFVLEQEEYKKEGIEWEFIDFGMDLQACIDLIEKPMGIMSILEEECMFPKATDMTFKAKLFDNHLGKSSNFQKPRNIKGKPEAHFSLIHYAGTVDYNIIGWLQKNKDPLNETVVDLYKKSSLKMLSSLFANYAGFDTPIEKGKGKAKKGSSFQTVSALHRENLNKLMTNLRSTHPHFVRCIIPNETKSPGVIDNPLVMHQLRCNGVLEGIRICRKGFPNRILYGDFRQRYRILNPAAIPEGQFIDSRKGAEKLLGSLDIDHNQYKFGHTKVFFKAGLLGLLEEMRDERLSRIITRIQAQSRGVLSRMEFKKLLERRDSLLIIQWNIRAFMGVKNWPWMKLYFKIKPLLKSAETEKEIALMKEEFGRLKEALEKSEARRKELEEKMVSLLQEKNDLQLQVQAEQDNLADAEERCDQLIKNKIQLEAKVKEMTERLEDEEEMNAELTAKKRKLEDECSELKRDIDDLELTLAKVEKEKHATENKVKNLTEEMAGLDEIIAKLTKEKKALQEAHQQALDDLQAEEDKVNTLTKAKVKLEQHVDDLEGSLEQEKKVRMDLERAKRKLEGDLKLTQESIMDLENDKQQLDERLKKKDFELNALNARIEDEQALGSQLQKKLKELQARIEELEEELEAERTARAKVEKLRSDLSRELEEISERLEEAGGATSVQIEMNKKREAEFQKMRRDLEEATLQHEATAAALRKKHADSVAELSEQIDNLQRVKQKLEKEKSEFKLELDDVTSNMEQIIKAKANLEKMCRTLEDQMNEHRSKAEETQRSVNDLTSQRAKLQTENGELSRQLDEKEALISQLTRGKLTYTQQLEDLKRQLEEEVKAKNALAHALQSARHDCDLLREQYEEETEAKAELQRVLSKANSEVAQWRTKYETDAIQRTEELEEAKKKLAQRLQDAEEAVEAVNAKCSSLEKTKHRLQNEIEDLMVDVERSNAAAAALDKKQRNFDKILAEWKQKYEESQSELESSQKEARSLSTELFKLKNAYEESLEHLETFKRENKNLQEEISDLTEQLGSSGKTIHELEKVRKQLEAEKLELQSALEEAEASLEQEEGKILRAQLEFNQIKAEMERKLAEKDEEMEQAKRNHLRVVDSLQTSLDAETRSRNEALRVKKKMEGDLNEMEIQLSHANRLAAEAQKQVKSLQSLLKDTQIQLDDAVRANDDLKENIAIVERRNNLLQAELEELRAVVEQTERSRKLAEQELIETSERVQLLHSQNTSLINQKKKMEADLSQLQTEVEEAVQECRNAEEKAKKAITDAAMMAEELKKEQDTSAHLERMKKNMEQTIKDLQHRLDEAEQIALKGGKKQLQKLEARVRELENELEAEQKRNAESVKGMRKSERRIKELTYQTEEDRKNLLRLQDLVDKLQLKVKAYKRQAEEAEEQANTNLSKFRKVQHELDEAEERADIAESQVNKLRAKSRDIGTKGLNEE
Chain of bovine cardiac myosin (P85100 whole entry partner): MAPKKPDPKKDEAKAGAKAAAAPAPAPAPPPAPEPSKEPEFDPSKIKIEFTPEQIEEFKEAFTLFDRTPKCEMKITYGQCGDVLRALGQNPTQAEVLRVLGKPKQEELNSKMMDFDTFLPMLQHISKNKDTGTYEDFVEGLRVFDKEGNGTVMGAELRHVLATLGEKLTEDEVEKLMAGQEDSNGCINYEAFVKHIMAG
Chain of bovine cardiac myosin (Q3SZE5 whole entry partner): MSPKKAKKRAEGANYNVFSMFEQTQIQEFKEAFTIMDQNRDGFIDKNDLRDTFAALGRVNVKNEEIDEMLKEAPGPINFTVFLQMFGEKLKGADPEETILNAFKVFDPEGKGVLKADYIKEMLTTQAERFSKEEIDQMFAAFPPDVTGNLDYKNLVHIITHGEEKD
What is called IC50 is the midpoint of a concentration-inhibition curve. `CC(Nc1nc(=O)n(C2CCNCC2)c(=O)[nH]1)c1cccc(C(F)(F)F)c1` (stereo not shown) [Example 192]: the IC50 is 5810 nM.
In the case of `CC(O)c1cccc([C@@H](Nc2nc(=O)n(C(C)C)c(=O)[nH]2)C(F)F)c1` (stereo partly shown) [Example 267] it was 410 nM; in that of `COc1cccc([C@H](C)Nc2nc(=O)n(C3CCOCC3)c(=O)[nH]2)c1` [Example 326], 1350 nM; in that of `CO[C@@H]1COCC[C@H]1n1c(=O)nc(N[C@@H](C)c2cccc(C)c2)[nH]c1=O` [Example 299], 1180 nM.
In the case of `C[C@H](Nc1nc(=O)n(C2CCOCC2)c(=O)[nH]1)c1cccc(-c2ccc(F)cc2)c1` [Example 226] it was 1750 nM; in that of `C[C@H](Nc1nc(=O)n(C2CCOCC2)c(=O)[nH]1)c1cccc(Cl)c1` [Example 154], 370 nM.
In the case of `C[C@H](Nc1nc(=O)n(C2CCOCC2)c(=O)[nH]1)c1cc(C(F)(F)F)cc(C(F)(F)F)c1` [Example 196] it was 2670 nM; in that of `CC(Nc1nc(=O)n(C2CCNCC2)c(=O)[nH]1)c1ccc(C(F)(F)F)cc1` (stereo not shown) [Example 193], 5150 nM.
For the compound `C[C@H](Nc1nc(=O)n(C2CCOCC2)c(=O)[nH]1)c1c(F)cccc1F` [Example 12], the IC50 is 2140 nM.
For `CC(Nc1nc(=O)n(C2CCOCC2)c(=O)[nH]1)c1cc(F)ccc1F` (stereo not shown) [Example 319], the IC50 is 1280 nM.
The figure for `C[C@H](Nc1nc(=O)n([C@@H](C)C(F)(F)F)c(=O)[nH]1)c1cccc(F)c1` [Example 179] is 3620 nM; for `Cc1noc(C)c1-c1cccc([C@H](C)Nc2nc(=O)n(C3CCOCC3)c(=O)[nH]2)c1` [Example 198] it is 1210 nM.
The figure for `Cc1cccc([C@H](C)Nc2nc(=O)n(CC(F)(F)F)c(=O)[nH]2)c1` [Example 42] is 9100 nM; for `C[C@H](Nc1nc(=O)n(CC(F)(F)F)c(=O)[nH]1)c1ccc(OC(F)(F)F)cc1` [Example 176] it is 7900 nM; for `C[C@H](Nc1nc(=O)n(C2CCOCC2)c(=O)[nH]1)c1cc(Cl)cc(Cl)c1` [Example 151] it is 1770 nM.
Regarding `C[C@H](Nc1nc(=O)n(C2CCOCC2)c(=O)[nH]1)c1cccc(C2CCN(C(=O)OC(C)(C)C)CC2)c1` [Example 211], the IC50 is 1310 nM.
The figure for `Cc1cc(C)cc([C@H](C)Nc2nc(=O)n(C3CCOCC3)c(=O)[nH]2)c1` [Example 56] is 1490 nM; for `CC(C)n1c(=O)nc(N[C@@H](C)c2cccc([C@H](C)O)c2)[nH]c1=O` [Example 343] it is 1510 nM.
In the case of `CC(Nc1nc(=O)n(C2CCOCC2)c(=O)[nH]1)c1ccccc1C(F)(F)F` (stereo not shown) [Example 129] it was 230 nM.
In the case of `C[C@H](Nc1nc(=O)n([C@@H](C)C(F)(F)F)c(=O)[nH]1)C1CCCCC1` [Example 14] it was 1170 nM; in that of `C[C@H](Nc1nc(=O)n(C2CCOCC2)c(=O)[nH]1)c1ccc(C#N)cc1` [Example 169], 1450 nM.
Take `C[C@H](Nc1nc(=O)n([C@@H](C)C(F)(F)F)c(=O)[nH]1)c1ccc(Cl)c(Cl)c1` [Example 324]: the IC50 turned out to be 1060 nM.
In the case of `CC(C)n1c(=O)nc(N[C@@H](C)c2cccc(F)c2)[nH]c1=O` [Example 181] it was 2380 nM; in that of `CC(Nc1nc(=O)n(C2CCOCC2)c(=O)[nH]1)c1ccccc1Br` (stereo not shown) [Example 119], 3400 nM; in that of `C[C@H](Nc1nc(=O)n(C2CCOCC2)c(=O)[nH]1)c1cccc(C2CN(C(=O)OC(C)(C)C)C2)c1` [Example 336], 1160 nM.
The figure for `C[C@H](Nc1nc(=O)n(C2CCOCC2)c(=O)[nH]1)c1cccc(-n2cccn2)c1` [Example 199] is 2100 nM.
Turning to `CC(Nc1nc(=O)n(C(C)C)c(=O)[nH]1)c1ccccc1O` (stereo not shown) [Example 51], the IC50 turned out to be 11100 nM.
With `COC[C@H](Nc1nc(=O)n(C2CCOCC2)c(=O)[nH]1)c1ccc(F)cc1F` [Example 269], the IC50 was determined as 1770 nM.
As for `CC(C)n1c(=O)nc(N[C@H](c2ccc(F)cc2F)C(F)F)[nH]c1=O` [Example 262], the IC50 was found to be 2960 nM.
As for `CC(=O)N1CC(c2cccc([C@@H](Nc3nc(=O)n(C4CCOCC4)c(=O)[nH]3)C(F)F)c2)C1` [Example 260], the IC50 was 200 nM.
The figure for `C[C@H](Nc1nc(=O)n(C2(C)CCC2)c(=O)[nH]1)C1CCCCC1` [Example 89] is 8640 nM; for `C[C@H](Nc1nc(=O)n(C2CCOCC2)c(=O)[nH]1)c1cccc(-n2cncn2)c1` [Example 201] it is 4850 nM; for `Cc1cccc([C@H](C)Nc2nc(=O)n([C@H]3CC[C@H](NC(=O)OC(C)(C)C)CC3)c(=O)[nH]2)c1` [Example 97] it is 1290 nM.
The figure for `O=c1nc(NC(c2ccccc2)C(F)F)[nH]c(=O)n1C1CCOCC1` (stereo not shown) [Example 143] is 7640 nM; for `CC(C)n1c(=O)nc(N[C@@H](C)c2cccc([C@H](C)O)c2)[nH]c1=O` [Example 342] it is 2070 nM.
The figure for `CC(Nc1nc(=O)n(C2CCNCC2)c(=O)[nH]1)c1ccc(F)cc1` (stereo not shown) [Example 188] is 4410 nM.
Consider `CC(C)n1c(=O)nc(N[C@H](c2cccc(C3CN(CC(F)(F)F)C3)c2)C(F)F)[nH]c1=O` [Example 261], for which the IC50 amounted to 760 nM.
In the case of `COCCN1CCC(n2c(=O)nc(N[C@@H](C)c3cccc(C)c3)[nH]c2=O)CC1` [Example 38] it was 1450 nM.
In the case of `Cc1nccn1-c1cccc([C@H](C)Nc2nc(=O)n(C3CCOCC3)c(=O)[nH]2)c1` [Example 203] it was 2070 nM.
In the case of `C[C@H](Nc1nc(=O)n([C@H](C)C(F)(F)F)c(=O)[nH]1)c1ccc(Cl)c(Cl)c1` [Example 323] it was 710 nM; in that of `CC(Nc1nc(=O)n(C2CCNCC2)c(=O)[nH]1)c1cccc(F)c1` (stereo not shown) [Example 191], 7630 nM.
`Cc1cc([C@H](C)Nc2nc(=O)n([C@H]3CCOC[C@H]3F)c(=O)[nH]2)ccc1F` [Example 297]: the IC50 turned out to be 1590 nM.
The figure for `CC(Nc1nc(=O)n(C2CCOCC2)c(=O)[nH]1)c1ccc(C2CC2)cc1` (stereo not shown) [Example 137] is 4930 nM.
In the case of `CC(Nc1nc(=O)n(C2CCOCC2)c(=O)[nH]1)c1cccc(C(F)(F)F)c1` (stereo not shown) [Example 130] it was 4700 nM; in that of `Cc1cccc(C(C)Nc2nc(=O)n(C3CCNCC3)c(=O)[nH]2)c1` (stereo not shown) [Example 187], 3340 nM.
In the case of `CC(C)[C@H](O)c1cccc([C@H](C)Nc2nc(=O)n(C3CCOCC3)c(=O)[nH]2)c1` [Example 345] it was 790 nM; in that of `C[C@H](Nc1nc(=O)n(C2CCOCC2)c(=O)[nH]1)c1cccc(-c2ccccc2F)c1` [Example 224], 700 nM.
Turning to `Cc1cccc([C@H](C)Nc2nc(=O)n([C@H](C)C(F)(F)F)c(=O)[nH]2)c1` [Example 41], the IC50 came out at 2190 nM.
The figure for `CC(C)n1c(=O)nc(N[C@@H](C)c2cccc(C(F)(F)F)c2)[nH]c1=O` [Example 322] is 1210 nM; for `CC(Nc1nc(=O)n(C2CCOCC2)c(=O)[nH]1)c1cccc(Br)c1` (stereo not shown) [Example 120] it is 1580 nM; for `Cc1cccc([C@H](C)Nc2nc(=O)n(C3CCCCC3)c(=O)[nH]2)c1` [Example 93] it is 8030 nM.
The figure for `C[C@H](Nc1nc(=O)n(C2CCOCC2)c(=O)[nH]1)c1cccc(C2CCNCC2)c1` [Example 209] is 1950 nM.
